The results in this text go back to ChEMBL document CHEMBL1130519, “BN 80245: An E-ring modified camptothecin with potent antiproliferative and topoisomerase I inhibitory activities” (Bioorg Med Chem Lett, 1997).

This assay has as its system L1210. Description: Compound was evaluated for cytotoxic activity on L1210 murine leukemia cells. The assay is classed as functional, cell-based. The following applies: Mus musculus.
Compound `CCC1(O)CC(=O)OCc2c1cc1n(c2=O)Cc2cc3ccccc3nc2-1` (stereo not drawn) came in with an IC50 of 16.2 nM. `CC[C@@]1(O)C(=O)OCc2c1cc1n(c2=O)Cc2cc3ccccc3nc2-1` [CAMPTOTHECIN] displayed an IC50 of 126 nM. For `CC[C@@]1(O)C(=O)OCc2c1cc1n(c2=O)Cc2cc3c(CN(C)C)c(O)ccc3nc2-1` [TOPOTECAN], the IC50 was determined as 601 nM.

As a reminder, the IC50 is the concentration at which inhibition is half-maximal. Lower therefore signals greater potency.
